Reference: publication PMC8330735 (Journal of Enzyme Inhibition and Medicinal Chemistry, 2021)

Tests used:
[1] = target: T1, human recombinant COX-2 (Homo sapiens, UniProt P35354); experiment: In vitro COX-2 inhibitory assay (colorimetric Cayman kit); conditions: for Selectivity Index (SI): COX-1 IC50/COX-2 IC50
T1 sequence (P35354 18-604): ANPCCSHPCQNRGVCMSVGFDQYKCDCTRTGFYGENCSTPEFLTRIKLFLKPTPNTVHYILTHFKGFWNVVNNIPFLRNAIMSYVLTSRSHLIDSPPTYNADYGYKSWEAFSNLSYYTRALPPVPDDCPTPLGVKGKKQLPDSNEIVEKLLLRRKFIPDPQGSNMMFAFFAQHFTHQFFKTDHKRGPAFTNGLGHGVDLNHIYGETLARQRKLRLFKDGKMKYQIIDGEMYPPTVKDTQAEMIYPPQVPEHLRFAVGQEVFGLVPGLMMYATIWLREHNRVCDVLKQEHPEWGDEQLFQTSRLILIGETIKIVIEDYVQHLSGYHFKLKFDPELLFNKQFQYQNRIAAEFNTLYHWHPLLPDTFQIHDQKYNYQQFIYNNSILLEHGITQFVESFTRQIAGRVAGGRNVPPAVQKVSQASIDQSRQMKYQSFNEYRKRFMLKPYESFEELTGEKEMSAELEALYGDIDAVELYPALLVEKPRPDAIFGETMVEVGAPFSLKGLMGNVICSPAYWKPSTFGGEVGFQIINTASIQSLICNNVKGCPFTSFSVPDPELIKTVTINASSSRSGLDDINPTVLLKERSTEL
Procedure: (§1) All the newly synthesised compounds were tested for their ability to inhibit COX-1 and COX-2 enzymes using a screening assay method.

[2] = target: T2, ovine COX-1 (Ovis aries, UniProt P05979); experiment: In vitro COX-1 inhibitory assay (colorimetric Cayman kit)
T2 sequence (P05979 25-600): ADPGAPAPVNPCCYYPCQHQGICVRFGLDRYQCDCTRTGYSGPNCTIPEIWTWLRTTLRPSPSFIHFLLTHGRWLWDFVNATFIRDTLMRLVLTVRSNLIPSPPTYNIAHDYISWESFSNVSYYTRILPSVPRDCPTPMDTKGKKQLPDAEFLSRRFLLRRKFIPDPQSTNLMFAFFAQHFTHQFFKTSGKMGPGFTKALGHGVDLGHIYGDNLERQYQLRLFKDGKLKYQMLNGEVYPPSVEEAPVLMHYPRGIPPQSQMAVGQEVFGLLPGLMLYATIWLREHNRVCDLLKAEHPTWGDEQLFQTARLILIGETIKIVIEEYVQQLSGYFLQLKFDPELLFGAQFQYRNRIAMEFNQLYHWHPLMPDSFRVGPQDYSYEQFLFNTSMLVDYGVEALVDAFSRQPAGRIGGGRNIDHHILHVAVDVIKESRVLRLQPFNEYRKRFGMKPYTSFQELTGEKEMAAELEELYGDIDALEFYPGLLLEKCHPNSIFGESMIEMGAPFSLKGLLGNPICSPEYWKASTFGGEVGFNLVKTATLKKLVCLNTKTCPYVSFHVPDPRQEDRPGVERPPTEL
Procedure: as §1

[3] = test system: ROS production in LPS-activated RAW 264.7 macrophages; experiment: ROS production in LPS-activated RAW 264.7 macrophages (DCFH-DA); type: cell-based; conditions: Mus musculus, RAW264.7; LPS 1 µg/mL activated RAW 264.7
Procedure: HCA7 colorectal cancer cell line was obtained from Sigma. […] Louis, MO) containing 10% heat-inactivated foetal bovine serum (HI-FBS) (Gibco, USA), 100 μg/mL streptomycin (Invitrogen, USA), and […] penicillin (Invitrogen, USA)[40]. HCA7 and RAW 264.7 cells were cultured in Dulbecco's minimal essential media (DMEM, Invitrogen) containing 10% HI-FBS, sodium pyruvate (1 mM), penicillin ([…]), and streptomycin (100 mg/m)[41]^,[42]. […] The cells were cultured, incubated with the different test compounds, and activated with LPS (1 µg/mL) as detailed above. […] IC50 values were calculated from the dose–response curves.

[4] = test system: carrageenan-induced rat paw oedema; experiment: Carrageenan-induced rat paw oedema test; type: in vivo; conditions: compounds and celecoxib 50 mg/kg, ibuprofen and indomethacin 20 mg/kg; for Mean oedema thickness 1h: 1 h after carrageenan; for Mean oedema thickness 1h / Mean oedema thickness 2h / Mean oedema thickness 3h / Mean oedema thickness 4h / Mean oedema thickness 5h / Mean oedema thickness 24h / Mean oedema thickness 0h: mean ± SEM, n = 5; for Mean oedema thickness 2h: 2 h after carrageenan; for Mean oedema thickness 3h: 3 h after carrageenan; for Mean oedema thickness 4h: 4 h after carrageenan; for Mean oedema thickness 5h: 5 h after carrageenan; for Mean oedema thickness 24h: 24 h after carrageenan; for Mean oedema thickness 0h: before carrageenan (0 h); for Average oedema inhibition%: from area under the curve of all time points
Procedure: The rats were divided into nine groups (n = 5/group). All tested compounds were suspended in 1% Tween-80. Group 1, controls, were given the vehicle (1% Tween80, 10 ml/kg). […] The rats were given the drugs 1 h before the injection of carrageenan solution (1% in 0.9% NaCl, 0.1 ml) (Sigma Aldrich, USA) in the sub-planter tissue of the right hind paw. The paw thickness (mm) was measured using a calliper before (0 h) and after carrageenan injection at 1, 2, 3, 4, 5 and 24 h. The inhibition of oedema thickness was calculated using the following formula (control– drug/control) × 100.

[5] = test system: stomach ulceration in rats; conditions: rat, in vivo, 2 days
Procedure: The rats from the previous experiment were fasted for 12 h., followed by the administration of additional doses of the selected compounds or the two references for two consecutive days. Six hrs after the last treatment, the animals were sacrificed, and their stomachs were removed, washed with saline solution (0.9%) and examined for ulceration using a magnifying lens. The ulcer scores were estimated according to the method prescribed by Kulkarni and as detailed in our previous studies[36–38]. The following scores were individually assigned to each lesion: normal coloured stomach, 0; red colouration, 0.5; spot ulcers, 1; haemorrhagic streaks, 1.5; ulcer >3 but <5 mm, 2; and ulcers >5 mm, 3.

[6] = test system: NO production in LPS-activated RAW 264.7 macrophages; experiment: NO production in LPS-activated RAW 264.7 macrophages (DAF-FM); type: cell-based; conditions: Mus musculus, RAW264.7; LPS 1 µg/mL activated RAW 264.7
Procedure: HCA7 colorectal cancer cell line was obtained from Sigma. […] Louis, MO) containing 10% heat-inactivated foetal bovine serum (HI-FBS) (Gibco, USA), 100 μg/mL streptomycin (Invitrogen, USA), and […] penicillin (Invitrogen, USA)[40]. HCA7 and RAW 264.7 cells were cultured in Dulbecco's minimal essential media (DMEM, Invitrogen) containing 10% HI-FBS, sodium pyruvate (1 mM), penicillin ([…]), and streptomycin (100 mg/m)[41]^,[42]. […] Molecular Probes, USA). Briefly, RAW 264.7 cells were cultured in black 96-well plates (200,000 cells/mL, 100 µl/well) for 24 h. […] The fluorescence intensity, which is directly proportional to NO levels, was quantified, as detailed in our previous study. IC50 values were calculated from the dose–response curves.

Row | SMILES | IC50 [1] | Selectivity Index (SI) [1] | IC50 [2] | melting point | also measured
1 | COc1ccc(C2N(NC(=O)Cc3c[nH]c4ccccc34)C(=O)c3ccccc3N2C)cc1 (centres unmarked) [4c, 2-(1 h-indol-3-yl)-N-(2-(4-methoxyphenyl)-1-methyl-4-oxo-1,4-dihydroquinazolin-3(2H)-yl)acetamide] | 0.03 µM | 373.67 | 11.2 ± 0.13 µM | 83 to 85 °C | –
2 | CC(C)Cc1ccc(C(C)C(=O)NN2C(=O)c3ccccc3N(C)C2c2ccccc2)cc1 (centres unmarked) [7a, 2-(4-Isobutylphenyl)-N-(1-methyl-4-oxo-2-phenyl-1,4-dihydroquinazolin-3(2H)-yl) propenamide] | 0.05 ± 0.13 µM | 255.02 | 12.76 ± 0.1 µM | 85 to 89 °C | –
3 | CC(C)Cc1ccc(C(C)C(=O)NN2C(=O)c3ccccc3N(C)C2c2ccc(Cl)cc2)cc1 (centres unmarked) [7b, N-(2-(4-chlorophenyl)-1-methyl-4-oxo-1,4-dihydroquinazolin-3(2H)-yl)-2–(4-isobutylphenyl) propenamide] | 0.04 µM | 333.75 | 13.35 ± 0.1 µM | 120 to 125 °C | –
4 | COc1ccc(C2N(NC(=O)C(C)c3ccc(CC(C)C)cc3)C(=O)c3ccccc3N2C)cc1 (centres unmarked) [7d, 2-(4-Isobutylphenyl)-N-(2-(4-methoxyphenyl)-1-methyl-4-oxo-1,4-dihydroquinazolin-3(2H)-yl) propenamide] | 0.04 µM | 359.25 | 14.4 ± 0.16 µM | 92 to 95 °C | –
5 | CC(C)Cc1ccc(C(C)C(=O)NN2C(=O)c3ccccc3N(C)C2c2ccc(F)cc2)cc1 (centres unmarked) [7e] | 0.04 µM | 296.25 | 11.8 ± 0.15 µM | 90 to 95 °C | –
6 | NNC(=O)CSc1nc2ccccc2c(=O)n1NC(=O)c1ccccc1 [13a, N-(2-((2-hydrazinyl-2-oxoethyl)thio)-4-oxoquinazolin-3(4H)-yl)benzamide] | 0.04 µM | 254.75 | 10.2 ± 0.14 µM | 208 to 213 °C | –
7 | O=C(CSc1nc2ccccc2c(=O)n1NC(=O)c1ccccc1)NNC(=O)c1ccccc1 [14a, N-(2-((2-(2-benzoylhydrazinyl)-2-oxoethyl)thio)-4-oxoquinazolin-3(4H)-yl)benzamide] | 0.03 µM | 362.00 | 10.9 ± 0.2 µM | 194 to 198 °C | –
8 | O=C(CSc1nc2ccccc2c(=O)n1NC(=O)c1ccccc1)NNC(=O)c1ccc(Cl)cc1 [14b, N-(2-((2-(2-(4-chlorobenzoyl)hydrazinyl)-2-oxoethyl)thio)-4 oxoquinazolin-3(4H)-yl)benzamide] | 0.04 µM | 324.5 | 12.98 ± 0.12 µM | 215 to 220 °C | –
9 | O=C(CSc1nc2ccccc2c(=O)n1NC(=O)Cc1ccccc1)NNC(=O)c1ccc(Cl)cc1 [14d, N-(2-((2-(2-(4-chlorobenzoyl)hydrazinyl)-2-oxoethyl)thio)-4-oxoquinazolin-3(4H)-yl)-2-phenylacetamide] | 0.04 µM | 314.00 | 12.56 ± 0.11 µM | 221 to 226 °C | –
10 | CC(C)Cc1ccc(C(C)C(=O)O)cc1 (centres unmarked) [Ibuprofen, reference compound] | – | – | – | – | IC50 [3]: 36.4 ± 1.45 µM; Mean oedema thickness 1h [4]: 1.76 ± 0.07 mm; Mean oedema thickness 2h [4]: 2.00 ± 0.15 mm; Mean oedema thickness 3h [4]: 1.74 ± 0.08 mm; Mean oedema thickness 4h [4]: 1.23 ± 0.16 mm; Mean oedema thickness 5h [4]: 1.36 ± 0.18 mm; Mean oedema thickness 24h [4]: 0.48 ± 0.15 mm; Mean oedema thickness 0h [4]: 0.00 ± 0.00 mm; Average oedema inhibition% [4]: 47.18%; Average Ulcer number [5]: 3.8; Lesion Incidence (%) [5]: 100%; Number of rats with ulcer [5]: 5; IC50 [6]: 18.8 ± 1.19 µM
11 | COc1ccc2c(c1)c(CC(=O)O)c(C)n2C(=O)c1ccc(Cl)cc1 [Indomethacin, reference compound] | – | – | – | – | IC50 [3]: 68.9 ± 1.29 µM; Mean oedema thickness 1h [4]: 2.00 ± 0.14 mm; Mean oedema thickness 2h [4]: 2.21 ± 0.12 mm; Mean oedema thickness 3h [4]: 1.82 ± 0.13 mm; Mean oedema thickness 4h [4]: 2.02 ± 0.16 mm; Mean oedema thickness 5h [4]: 1.87 ± 0.18 mm; Mean oedema thickness 24h [4]: 0.49 ± 0.10 mm; Mean oedema thickness 0h [4]: 0.00 ± 0.00 mm; Average oedema inhibition% [4]: 33.81%; Average Ulcer number [5]: 12.4; Lesion Incidence (%) [5]: 100%; Number of rats with ulcer [5]: 5; IC50 [6]: 25.3 ± 1.01 µM
